Patent publication US20110212968A1, “PHENETHYLAMIDE DERIVATIVES AND THEIR HETEROCYCLIC ANALOGUES” (priority 2008, published 2011)
pIC50: −log10 of the molar value.

Key:
human orexin-2 receptor = target: T1, human orexin-2 receptor (Homo sapiens, UniProt O43614); assay: Intracellular calcium measurement (FLIPR Tetra), orexin receptor antagonistic activity, OX2; assay type: cell-based; settings: CHO cells expressing human orexin-2 receptor, 3 nM orexin-A
T1 construct: expressed in transfected cells; host or cells: CHO (Chinese hamster ovary) cells, kept under G418 selection
T1 sequence (O43614 1-444): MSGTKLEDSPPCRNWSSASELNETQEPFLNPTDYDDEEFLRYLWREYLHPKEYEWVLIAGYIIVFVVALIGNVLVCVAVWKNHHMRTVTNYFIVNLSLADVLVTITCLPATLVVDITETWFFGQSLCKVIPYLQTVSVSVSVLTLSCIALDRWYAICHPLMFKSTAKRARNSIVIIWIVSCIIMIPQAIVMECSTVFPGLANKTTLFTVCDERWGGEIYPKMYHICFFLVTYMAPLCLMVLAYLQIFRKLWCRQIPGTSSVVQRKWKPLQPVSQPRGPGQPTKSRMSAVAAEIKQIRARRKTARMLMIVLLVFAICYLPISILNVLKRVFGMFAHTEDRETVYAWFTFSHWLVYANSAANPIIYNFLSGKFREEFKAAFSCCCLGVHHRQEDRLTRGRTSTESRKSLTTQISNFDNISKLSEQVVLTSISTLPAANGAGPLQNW
Experimental: (§1) The orexin receptor antagonistic activity of the compounds of formula (I) is determined in accordance with one of the following experimental methods.
(§2) Chinese hamster ovary (CHO) cells expressing the human orexin-1 receptor and the human orexin-2 receptor, respectively, are grown in culture medium (Ham F-12 with L-Glutamine) containing 300 μg/ml G418, 100 U/ml penicillin, 100 μg/ml streptomycin and 10% heat inactivated fetal calf serum (FCS). The cells are seeded at 20,000 cells/well into 384-well black clear bottom sterile plates (Greiner). The seeded plates are incubated overnight at 37° C. in 5% CO2.
(§3) Human orexin-A as an agonist is prepared as 1 mM stock solution in MeOH:water (1:1), diluted in HBSS containing 0.1% bovine serum albumin (BSA), NaHCO3: 0.375 g/l and 20 mM HEPES for use in the assay at a final concentration of 3 nM. Antagonists are prepared as 10 mM stock solution in DMSO, then diluted in 384-well plates, first in DMSO, then in HBSS containing 0.1% bovine serum albumin (BSA), NaHCO3: 0.375 g/l and 20 mM HEPES.
(§4) On the day of the assay, 50 μl of staining buffer (HBSS containing 1% FCS, 20 mM HEPES, NaHCO3: 0.375 g/l, 5 mM probenecid (Sigma) and 3 μM of the fluorescent calcium indicator fluo-4 AM (1 mM stock solution in DMSO, containing 10% pluronic) is added to each well.
(§5) The 384-well cell-plates are incubated for 50 min at 37° C. in 5% CO2 followed by equilibration at RT for 30-120 min before measurement.
(§6) Within the Fluorescent Imaging Plate Reader (FLIPR Tetra, Molecular Devices), antagonists are added to the plate in a volume of 10 μl/well, incubated for 10 min and finally 10 μl/well of agonist is added. Fluorescence is measured for each well at 1 second intervals, and the height of each fluorescence peak is compared to the height of the fluorescence peak induced by 3 nM orexin-A with vehicle in place of antagonist. For each antagonist, the IC50 value (the concentration of compound needed to inhibit 50% of the agonistic response) is determined and may be normalized using the obtained IC50 value of a on-plate reference compound (normalized values in Table 1 are indicated by an asterisk *). With the FLIPR Tetra, two different conditions (conditions A and conditions B) were used, differing in adjustment of pipetting speed and cell splitting regime. The calculated IC50 values of the compounds may fluctuate depending on the daily cellular assay performance. Fluctuations of this kind are known to those skilled in the art.

human orexin-1 receptor = target: T2, human orexin-1 receptor (Homo sapiens, UniProt O43613); assay: Intracellular calcium measurement (FLIPR Tetra), orexin receptor antagonistic activity, OX1; assay type: cell-based; settings: CHO cells expressing human orexin-1 receptor, 3 nM orexin-A
T2 construct: expressed in transfected cells; host or cells: CHO (Chinese hamster ovary) cells, kept under G418 selection
T2 sequence (O43613 1-425): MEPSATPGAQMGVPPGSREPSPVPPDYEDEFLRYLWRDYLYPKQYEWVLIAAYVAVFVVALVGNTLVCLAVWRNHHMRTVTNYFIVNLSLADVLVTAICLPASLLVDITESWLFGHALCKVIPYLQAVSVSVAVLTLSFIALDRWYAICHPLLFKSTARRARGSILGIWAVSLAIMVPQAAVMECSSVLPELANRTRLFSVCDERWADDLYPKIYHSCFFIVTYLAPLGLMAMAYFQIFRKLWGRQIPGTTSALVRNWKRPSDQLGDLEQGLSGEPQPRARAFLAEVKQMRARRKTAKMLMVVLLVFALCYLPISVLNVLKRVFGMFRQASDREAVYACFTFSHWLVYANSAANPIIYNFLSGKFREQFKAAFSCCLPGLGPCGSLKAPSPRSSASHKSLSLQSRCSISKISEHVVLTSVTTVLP
Experimental: as §1, §2, §3, §4, §5, §6

[1] = conditions B, normalized (*) using IC50 of on-plate reference compound

| Compound | pIC50 (human orexin-2 receptor; conditions A) | pIC50 (human orexin-1 receptor; conditions A) | pIC50 (human orexin-2 receptor; [1]) | pIC50 (human orexin-1 receptor; [1]) | pIC50 (human orexin-2 receptor; conditions B) | pIC50 (human orexin-1 receptor; conditions B) |
| --- | --- | --- | --- | --- | --- | --- |
| COc1ccc(CCN(CC2CC2)C(=O)c2ncsc2-c2ccccc2F)cc1OC [Example 37, 5-(2-Fluoro-phenyl)-thiazole-4-carboxylic acid cyclopropylmethyl-[2-(3,4-dimethoxy-phenyl)-ethyl]-amide] | 8.30 | 5.57 | – | – | – | – |
| CCC(=O)Nc1ccc(-c2sc(C)nc2C(=O)N(CCc2c[nH]c3ccccc23)CC2CC2)cc1 [Example 501, 2-Methyl-5-(4-propionylamino-phenyl)-thiazole-4-carboxylic acid cyclopropylmethyl-[2-(1H-indol-3-yl)-ethyl]-amide] | – | – | 6.48 | 6.61 | – | – |
| Cc1ccc(-c2nccnc2C(=O)N(CCc2c[nH]c3cc(Cl)ccc23)CC2CC2)cc1C [Example 331, 3-(3,4-Dimethyl-phenyl)-pyrazine-2-carboxylic acid [2-(6-chloro-1H-indol-3-yl)-ethyl]-cyclopropylmethyl-amide] | – | – | 7.66 | 7.21 | – | – |
| Cc1nc(C(=O)N(CCc2c[nH]c3ccc(F)cc23)CC2CC2)c(-c2ccc(C)c(F)c2F)s1 [Example 273, 5-(2,3-Difluoro-4-methyl-phenyl)-2-methyl-thiazole-4-carboxylic acid cyclopropylmethyl-[2-(5-fluoro-1H-indol-3-yl)-ethyl]-amide] | – | – | 7.19 | 6.39 | – | – |
| Cc1ccc(-c2sc(N(C)C)nc2C(=O)N(CCc2nc3cc(C)c(C)cc3[nH]2)CC2CC2)cc1C [Example 377, 2-Dimethylamino-5-(3,4-dimethyl-phenyl)-thiazole-4-carboxylic acid cyclopropylmethyl-[2-(5,6-dimethyl-1H-benzoimidazol-2-yl)-ethyl]-amide] | – | – | 6.58 | 6.94 | – | – |

Results, then the compound that gave them:

| pIC50 (human orexin-2 receptor; conditions A) | pIC50 (human orexin-1 receptor; conditions A) | pIC50 (human orexin-2 receptor; [1]) | pIC50 (human orexin-1 receptor; [1]) | pIC50 (human orexin-2 receptor; conditions B) | pIC50 (human orexin-1 receptor; conditions B) | Compound |
| --- | --- | --- | --- | --- | --- | --- |
| 7.74 | 5.51 | – | – | – | – | COc1ccc(CCN(CC2CC2)C(=O)c2nc(C)oc2-c2cccc(C(F)(F)F)c2)cc1OC [Example 43, 2-Methyl-5-(3-trifluoromethyl-phenyl)-oxazole-4-carboxylic acid cyclopropylmethyl-[2-(3,4-dimethoxy-phenyl)-ethyl]-amide] |
| 7.66 | 5.37 | – | – | – | – | COc1ccc(CCN(CC2CC2)C(=O)c2sc(C)nc2-c2ccc(C)cc2)cc1OC [Example 49, 2-Methyl-4-p-tolyl-thiazole-5-carboxylic acid cyclopropylmethyl-[2-(3,4-dimethoxy-phenyl)-ethyl]-amide] |
| – | – | – | – | 7.92 | 6.27 | COc1cc(CCN(CC2CC2)C(=O)c2nc(C)sc2-c2ccc(C)c(C)c2)ccc1O [Example 207, 5-(3,4-Dimethyl-phenyl)-2-methyl-thiazole-4-carboxylic acid cyclopropylmethyl-[2-(4-hydroxy-3-methoxy-phenyl)-ethyl]-amide] |
| – | – | – | – | 7.66 | 6.35 | COc1ccc(CCN(CC2CC2)C(=O)c2nc(C)sc2-c2ccc(C)c(C)c2)cc1C [Example 202, 5-(3,4-Dimethyl-phenyl)-2-methyl-thiazole-4-carboxylic acid cyclopropylmethyl-[2-(4-methoxy-3-methyl-phenyl)-ethyl]-amide] |
| – | – | – | – | 8.40 | 7.59 | COc1ccc(CCN(C(=O)c2nc(C)sc2-c2ccc(C)c(C)c2)C2CC2)cc1OC [Example 123, 5-(3,4-Dimethyl-phenyl)-2-methyl-thiazole-4-carboxylic acid cyclopropyl-[2-(3,4-dimethoxy-phenyl)-ethyl]-amide] |
| 8.00 | < 5.00 | – | – | – | – | COc1ccc(CCN(CC2CC2)C(=O)c2sc(C)nc2-c2ccc(F)cc2)cc1OC [Example 50, 4-(4-Fluoro-phenyl)-2-methyl-thiazole-5-carboxylic acid cyclopropylmethyl-[2-(3,4-dimethoxy-phenyl)-ethyl]-amide] |
| – | – | – | – | 7.09 | 5.83 | COc1ccc(CCN(CCO)C(=O)c2nc(C)sc2-c2cccc(F)c2)cc1OC [Example 124, 5-(3-Fluoro-phenyl)-2-methyl-thiazole-4-carboxylic acid [2-(3,4-dimethoxy-phenyl)-ethyl]-(2-hydroxy-ethyl)-amide] |
